{"source": "patent US12612343B2", "about": "“PSMA binder and use thereof” (priority 2020, dated 2026)", "key": {"PSMA protein": {"biological_target": "PSMA protein (Homo sapiens, UniProt Q04609)", "sequence (Q04609 whole entry)": "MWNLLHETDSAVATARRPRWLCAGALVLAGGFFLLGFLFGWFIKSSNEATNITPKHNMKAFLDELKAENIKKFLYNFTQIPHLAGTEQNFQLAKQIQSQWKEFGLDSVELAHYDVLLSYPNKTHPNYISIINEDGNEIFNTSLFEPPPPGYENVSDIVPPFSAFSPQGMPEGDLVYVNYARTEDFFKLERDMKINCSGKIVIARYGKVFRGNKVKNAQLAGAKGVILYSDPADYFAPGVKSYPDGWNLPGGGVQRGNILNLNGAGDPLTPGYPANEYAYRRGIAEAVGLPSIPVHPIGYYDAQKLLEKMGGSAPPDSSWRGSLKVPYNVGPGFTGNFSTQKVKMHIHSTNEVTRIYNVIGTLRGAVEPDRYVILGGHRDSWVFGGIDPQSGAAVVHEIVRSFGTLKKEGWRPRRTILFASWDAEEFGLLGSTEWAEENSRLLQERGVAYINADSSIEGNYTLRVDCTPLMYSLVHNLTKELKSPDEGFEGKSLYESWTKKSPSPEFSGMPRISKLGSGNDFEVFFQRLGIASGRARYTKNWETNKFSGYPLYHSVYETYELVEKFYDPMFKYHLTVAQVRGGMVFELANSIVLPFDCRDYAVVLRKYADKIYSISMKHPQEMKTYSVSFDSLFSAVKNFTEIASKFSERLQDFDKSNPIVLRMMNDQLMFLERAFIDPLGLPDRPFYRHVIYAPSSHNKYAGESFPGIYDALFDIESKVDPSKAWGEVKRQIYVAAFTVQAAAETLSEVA", "experiment": "Affinity assay by Surface Plasmon Resonance (SPR)", "details": "binding to PSMA protein", "description": "The binding capacity of HYNIC-PSMA-XL-2 and HYNIC-PSMA-XL-3 to PSMA protein was determined by Surface Plasmon Resonance (SPR)."}, "[1]": {"tested_on": "prostate tumors versus bladder", "experiment": "Comparative imaging study with existing PSMA imaging agents in 15 prostate cancer patients", "type": "in vivo, human", "details": "3 groups, SPECT/CT or PET/CT (FIG. 19)", "excerpt": "15 patients with prostate cancer were randomly divided into 3 groups. One group underwent ^99mTc-HYNIC-ALUG SPECT/CT, one group underwent ^68Ga-PSMA11 PET/CT, and one group underwent ^99mTc-HYNIC-PSMA-XL3 SPECT/CT."}, "[2]": {"tested_on": "biochemical recurrent prostate cancer", "experiment": "Comparison of SPECT/CT and PET/CT in 10 patients with biochemical recurrent prostate cancer", "type": "in vivo, human", "details": "for patients found to have local recurrence in the prostatic fossa / positive rate of imaging: 5 patients per group; for positive rate of imaging: preliminary statistics; for Number of tumors / With or without local recurrence: per patient (No. 1-10), biochemical recurrence after radical prostatectomy", "description": "10 patients with biochemical recurrent prostate cancer were randomly divided into two groups. The basic clinical information of the two groups was similar: they both have previously received radical prostatectomy, and the current PSA of them were 1-3 ng/ml, and the GS score of them were 8-9. One group underwent ^68Ga-PSMA11 PET/CT, and the other group underwent ^99mTc-PSMA-XL SPECT/CT."}, "[3]": {"tested_on": "Human prostate cancer LNCaP cells (PSMA positive)", "experiment": "LNCaP cell uptake experiment", "type": "cell-based", "details": "for specific binding to PSMA-positive LNCaP cells: conclusion from the uptake and blocking experiment", "description": "Human prostate cancer LNCaP cells (PSMA positive) were cultured in a RPMI 1640 medium containing 10% fetal bovine serum and 1% penicillin-streptomycin double antibody under 37° C. with 5% CO2 and saturated humidity in the incubator. When the cells reach log phase, they were digested with 0.25% trypsin, then the cells were collected and washed twice with PBS, after that a cell suspension was obtained for further culture. A fixed number of cell lines (1.0×10^6 cells/1 ml) was placed in each well of a 24-well cell culture dish, and the experiment was performed after the logarithmic growth phase.\nThe cells were divided into an experimental group and a blocking group. […] 6 groups of experiments were carried out in parallel. After 1 h, the culture medium was aspirated, placed in a γ-counting tube, and then washed three times with PBS. The washing solution and the culture medium were combined for storage. Then the cells were trypsinized, collected in another counting tube, and the percentage of cell uptake was calculated by a γ-counting tube."}, "[4]": {"tested_on": "prostate cancer tumors (PSMA expression)", "experiment": "SPECT/CT imaging of 10 patients with prostate cancer, with immunohistochemistry of surgical specimens", "type": "in vivo, human", "description": "The patients were injected with about 740MBq of ^99mTc-HYNIC-PSMA-XL-3, and 2 hours later, they were examined by a Discovery 670 (GE, USA) scanner. Taking the right obturator internus muscle as the background, the target-to-background ratio (TBR) was calculated, and the results were shown in FIG. 15. […] Four of the five patients with primary prostate cancer underwent radical prostatectomy, and one of the three patients with biochemical recurrence prostate cancer underwent salvage lymph node dissection. Without knowing the results of ^99mTc-HYNIC-PSMA-XL-3 SPECT/CT, pathology specialists performed pathological analysis of samples. Representative sections were stained by immunohistochemistry method, deparaffinized in xylene and rehydrated in graded ethanol series. Antigen retrieval was performed with the aid of autoclave and retrieval buffer (Target Retrieval Solution, Dako). Mouse monoclonal antibody against PSMA (clone 3E6, Dako) was diluted at a 1:100 dilution and incubated overnight at 4° C., followed by immunodetection using the Histostain-Plus Detection Kit (Invitrogen). Stained sections were scanned using Nanozoomer 2.0-[…] (Hamamatsu Photonics) to generate digital overall images."}, "[5]": {"details": "upper bound calculated from ka, as kd was beyond the detection limit, read-out: KD value (SPR method)"}}, "note": "Several values for one entry are separate records, joined by “and”; a condition that tells them apart may be missing. Identical values can stand only once. Entries after “also recorded” stand apart in the source; their conditions may differ. Like-named read-outs stand apart in the source and are kept apart here."}
{"smiles": "NNc1ccc(C(=O)NC(CCC(=O)O)C(=O)NC(CCC(=O)O)C(=O)NCc2ccc(C(=O)NC(Cc3ccc4ccccc4c3)C(=O)NCCCCC(NC(=O)NC(CCC(=O)O)C(=O)O)C(=O)O)cc2)cn1", "note": "(stereo not drawn) [HYNIC-PSMA-XL-2, Glu-Urea-Lys-2Nal-AMB-Glu-Glu-HYNIC]", "values": [{"measurement": "Kd", "setting": "PSMA protein; [5]", "result": "< 0.00643", "unit": "nM"}]}
{"smiles": "NNc1ccc(C(=O)NC(CCC(=O)O)C(=O)NCc2ccc(C(=O)NC(Cc3ccc4ccccc4c3)C(=O)NCCCCC(NC(=O)NC(CCC(=O)O)C(=O)O)C(=O)O)cc2)cn1", "note": "(stereo not drawn) [HYNIC-PSMA-XL-3, Glu-Urea-Lys-2Nal-AMB-Glu-HYNIC]", "values": [{"measurement": "Kd", "setting": "PSMA protein; [5]", "result": "< 0.00486", "unit": "nM"}]}
{"smiles": "O=C(O)CCc1ccc(O)c(CN(CCN(CC(=O)O)Cc2cc(CCC(=O)NCCCCCC(=O)NCCCC[C@H](NC(=O)N[C@@H](CCC(=O)O)C(=O)O)C(=O)O)ccc2O)CC(=O)O)c1", "note": "[PSMA11, reference compound]", "values": [{"measurement": "Kd", "setting": "PSMA protein; reference PSMA inhibitors, same method", "result": 1.25, "unit": "nM"}]}
{"smiles": "O=C([O-])CN(CCN(CC(=O)[O-])Cc1cc(CCC(=O)NCCCCCC(=O)NCCCC[C@H](NC(=O)N[C@@H](CCC(=O)O)C(=O)O)C(=O)O)ccc1[O-])Cc1cc(CCC(=O)O)ccc1[O-].[68Ga+3].[OH3+]", "note": "[^68Ga-PSMA11, reference compound]", "values": [{"measurement": "distribution of radioactivity in the bladder", "setting": "[1]", "result": "higher radiophysiological distribution; also recorded: high physiological distributions in the bladder"}, {"measurement": "patients found to have local recurrence in the prostatic fossa", "setting": "[2]", "result": 1}, {"measurement": "positive rate of imaging", "setting": "[2]", "result": 80, "unit": "%"}, {"measurement": "Number of tumors", "setting": "[2]", "result": "1 (2×) and 4 and 0 and 2"}, {"measurement": "With or without local recurrence", "setting": "[2]", "result": "no (4×) and yes"}]}
{"smiles": "O=C(O)CCC(NC(=O)NC(CCCCNC(=O)C(Cc1ccc2ccccc2c1)NC(=O)c1ccc(CNC(=O)C(CCC(=O)O)NC(=O)C(CCC(=O)O)NC(=O)c2ccc(N[N]=[99Tc]345([Cl])[O]C(=O)C[N]3CC[N]4CC(=O)[O]5)nc2)cc1)C(=O)O)C(=O)O", "note": "(stereo not drawn) [^99mTc-HYNIC/EDDA-PSMA-XL-2]", "values": [{"measurement": "specific binding to PSMA-positive LNCaP cells", "setting": "[3]", "result": "highly specifically bind"}]}
{"smiles": "O=C(O)CCC(NC(=O)NC(CCCCNC(=O)C(Cc1ccc2ccccc2c1)NC(=O)c1ccc(CNC(=O)C(CCC(=O)O)NC(=O)c2ccc(N[N]=[99Tc]3([Cl])[O]C(=O)CNCCNCC(=O)[O]3)nc2)cc1)C(=O)O)C(=O)O", "note": "(stereo not drawn) [^99mTc-HYNIC/EDDA-PSMA-XL-3]", "values": [{"measurement": "percentage of cell uptake, Experimental group", "setting": "[3]; LNCaP cells, 0.5 μCi per well, 1 h", "result": "14.01 ± 1.11", "unit": "%"}, {"measurement": "percentage of cell uptake, Blocking group", "setting": "[3]; LNCaP cells, 1 h, excess 2-PMPA (1000-fold molar equivalent) added half an hour in advance", "result": "2.66 ± 0.51", "unit": "%"}, {"measurement": "patients found to have local recurrence in the prostatic fossa", "setting": "[2]", "result": 1}, {"measurement": "positive rate of imaging", "setting": "[2]", "result": 80, "unit": "%"}, {"measurement": "Number of tumors", "setting": "[2]; listed as 99mTc-PSMA-XL", "result": "3 and 1 and 2 and 0 and 4"}, {"measurement": "With or without local recurrence", "setting": "[2]; listed as 99mTc-PSMA-XL", "result": "yes and no (4×)"}]}
{"smiles": "O=C(O)CCC(NC(=O)NC(CCCCNC(=O)C(Cc1ccc2ccccc2c1)NC(=O)c1ccc(CNC(=O)C(CCC(=O)O)NC(=O)c2ccc(N[N]=[99Tc]345([Cl])[O]C(=O)C[N]3CC[N]4CC(=O)[O]5)nc2)cc1)C(=O)O)C(=O)O", "note": "(stereo not drawn) [^99mTc-HYNIC/EDDA-PSMA-XL-3]", "values": [{"measurement": "specific binding to PSMA-positive LNCaP cells", "setting": "[3]", "result": "highly specifically bind"}, {"measurement": "consistency of SPECT/CT tumor uptake with immunohistochemical PSMA expression of surgical specimens", "setting": "[4]; patients who underwent surgery, listed as 99mTc-HYNIC-PSMA-XL-3", "result": "highly consistent"}, {"measurement": "distribution of radioactivity in the bladder", "setting": "[4]; patients, about 740 MBq, SPECT/CT 2 hours after injection, compared with tumor uptake", "result": "low"}, {"measurement": "tumor targeting", "setting": "[4]; patients, about 740 MBq, SPECT/CT 2 hours after injection, metastases such as lymph nodes/bone", "result": "high"}, {"measurement": "distribution of radioactivity in the bladder", "setting": "[1]; listed as 99mTc-HYNIC-PSMA-XL3", "result": "very low distribution of radioactivity"}, {"measurement": "distribution of radioactivity in the bladder", "setting": "[1]; listed as 99mTc-HYNIC-PSMA-XL-3", "result": "less distribution of radioactivity in the bladder"}]}
